Measured values: ChEMBL document CHEMBL4052641 (Eur J Med Chem, 2017)
One block for each compound: values may come before it.

Legend:
[1] = biological target: T1, Xanthine dehydrogenase/oxidase (Bos taurus, UniProt P80457); test: Inhibition of bovine milk xanthine oxidase assessed as reduction in uric acid formation using xanthine as substrate preincubated for 5 mins followed by substrate addition by UV-Vis spectrophotometric assay
[2] = biological target: T1, Xanthine dehydrogenase/oxidase; test: Potency index, ratio of allopurinol IC50 to compound IC50 for bovine milk xanthine oxidase; settings: cattle
[3] = biological target: T1, Xanthine dehydrogenase/oxidase; test: Inhibition of bovine milk xanthine oxidase assessed as reduction in uric acid formation using xanthine as substrate preincubated for 3 hrs followed by substrate addition measured after 1 min by UV spectrophotometric assay
[4] = Inhibition of butter milk xanthine oxidase (unknown origin) assessed as reduction in uric acid formation using xanthine as substrate by spectrophotometric assay
[5] = Potency index, ratio of allopurinol IC50 to compound IC50 for butter milk xanthine oxidase (unknown origin)
[6] = Inhibition of butter milk xanthine oxidase (unknown origin) assessed as reduction in uric acid formation using xanthine as substrate by UV-Vis spectrophotometric assay
[7] = Inhibition of butter milk xanthine oxidase (unknown origin) assessed as reduction in uric acid formation using xanthine as substrate by double beam spectrophotometric assay
[8] = Potency index, ratio of quercetin IC50 to compound IC50 for butter milk xanthine oxidase (unknown origin)
[9] = biological target: T1, Xanthine dehydrogenase/oxidase; test: Inhibition of bovine milk xanthine oxidase assessed using xanthine as substrate after 10 mins by fluorometric assay
[10] = biological target: T2, Xanthine dehydrogenase/oxidase (Homo sapiens, UniProt P47989); test: Inhibition of xanthine oxidase (unknown origin) assessed as reduction in uric acid formation using xanthine as substrate after 30 mins by UV-Vis spectrophotometric assay
T2 sequence (P47989 whole entry): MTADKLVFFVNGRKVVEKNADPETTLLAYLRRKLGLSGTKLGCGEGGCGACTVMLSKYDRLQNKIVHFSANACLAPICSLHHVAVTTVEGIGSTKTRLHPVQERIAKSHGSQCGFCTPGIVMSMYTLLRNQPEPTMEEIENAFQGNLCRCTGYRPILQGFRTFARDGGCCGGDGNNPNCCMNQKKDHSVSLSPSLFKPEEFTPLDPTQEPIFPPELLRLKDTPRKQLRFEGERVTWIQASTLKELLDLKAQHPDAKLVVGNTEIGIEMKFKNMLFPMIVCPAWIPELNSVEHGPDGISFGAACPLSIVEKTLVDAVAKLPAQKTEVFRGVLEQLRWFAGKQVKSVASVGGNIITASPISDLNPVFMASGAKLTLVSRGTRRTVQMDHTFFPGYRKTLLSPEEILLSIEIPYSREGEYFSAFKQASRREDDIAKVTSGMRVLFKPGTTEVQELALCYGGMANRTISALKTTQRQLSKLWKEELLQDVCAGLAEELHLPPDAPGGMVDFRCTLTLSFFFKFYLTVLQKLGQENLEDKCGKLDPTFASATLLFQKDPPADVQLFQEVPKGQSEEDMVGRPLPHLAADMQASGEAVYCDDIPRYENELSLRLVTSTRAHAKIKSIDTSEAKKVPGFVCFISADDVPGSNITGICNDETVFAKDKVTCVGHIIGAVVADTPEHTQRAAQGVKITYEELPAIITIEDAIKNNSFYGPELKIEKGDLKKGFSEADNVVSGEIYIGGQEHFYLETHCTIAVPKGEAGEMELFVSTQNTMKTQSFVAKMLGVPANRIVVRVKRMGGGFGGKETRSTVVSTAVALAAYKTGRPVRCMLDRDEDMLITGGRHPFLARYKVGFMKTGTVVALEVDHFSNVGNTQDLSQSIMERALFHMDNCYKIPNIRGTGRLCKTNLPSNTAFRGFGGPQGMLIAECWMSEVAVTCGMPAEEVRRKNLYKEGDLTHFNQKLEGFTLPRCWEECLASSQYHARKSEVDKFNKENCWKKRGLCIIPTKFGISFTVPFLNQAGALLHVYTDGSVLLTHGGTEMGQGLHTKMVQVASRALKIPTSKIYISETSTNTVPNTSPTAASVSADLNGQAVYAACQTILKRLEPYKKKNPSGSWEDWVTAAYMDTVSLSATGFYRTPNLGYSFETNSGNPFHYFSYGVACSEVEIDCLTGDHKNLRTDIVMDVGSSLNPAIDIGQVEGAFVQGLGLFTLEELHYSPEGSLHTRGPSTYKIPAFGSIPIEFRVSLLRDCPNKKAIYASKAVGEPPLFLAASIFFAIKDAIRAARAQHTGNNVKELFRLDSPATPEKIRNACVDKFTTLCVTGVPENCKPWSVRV

[11] = biological target: T2, Xanthine dehydrogenase/oxidase; test: Potency index, ratio of allopurinol IC50 to compound IC50 for xanthine oxidase (unknown origin)
[12] = biological target: T1, Xanthine dehydrogenase/oxidase; test: Competitive inhibition of bovine milk xanthine oxidoreductase assessed as reduction in uric acid formation by spectrophotometric assay
[13] = biological target: T2, Xanthine dehydrogenase/oxidase; test: Inhibition of xanthine oxidase (unknown origin) using xanthine as substrate measured at every 1 mins up to 5 mins
[14] = biological target: T2, Xanthine dehydrogenase/oxidase; test: Inhibition of xanthine oxidase (unknown origin) assessed as reduction in uric acid formation using xanthine as substrate after 4 mins by UV-Vis spectrophotometric assay
[15] = biological target: T1, Xanthine dehydrogenase/oxidase; test: Inhibition of bovine milk xanthine oxidase assessed as reduction in uric acid formation using xanthine as substrate preincubated for 3 hrs followed by substrate addition by UV-Vis spectrophotometric assay
[16] = biological target: T2, Xanthine dehydrogenase/oxidase; test: Non-competitive inhibition of human xanthine oxidase
[17] = biological target: T2, Xanthine dehydrogenase/oxidase; test: Inhibition of xanthine oxidase (unknown origin) assessed as reduction in uric acid formation using xanthine as substrate after 10 mins
[18] = biological target: T1, Xanthine dehydrogenase/oxidase; test: Potency index, ratio of apigenin IC50 to compound IC50 for bovine milk xanthine oxidase; settings: cattle

T1 sequence (P80457 whole entry): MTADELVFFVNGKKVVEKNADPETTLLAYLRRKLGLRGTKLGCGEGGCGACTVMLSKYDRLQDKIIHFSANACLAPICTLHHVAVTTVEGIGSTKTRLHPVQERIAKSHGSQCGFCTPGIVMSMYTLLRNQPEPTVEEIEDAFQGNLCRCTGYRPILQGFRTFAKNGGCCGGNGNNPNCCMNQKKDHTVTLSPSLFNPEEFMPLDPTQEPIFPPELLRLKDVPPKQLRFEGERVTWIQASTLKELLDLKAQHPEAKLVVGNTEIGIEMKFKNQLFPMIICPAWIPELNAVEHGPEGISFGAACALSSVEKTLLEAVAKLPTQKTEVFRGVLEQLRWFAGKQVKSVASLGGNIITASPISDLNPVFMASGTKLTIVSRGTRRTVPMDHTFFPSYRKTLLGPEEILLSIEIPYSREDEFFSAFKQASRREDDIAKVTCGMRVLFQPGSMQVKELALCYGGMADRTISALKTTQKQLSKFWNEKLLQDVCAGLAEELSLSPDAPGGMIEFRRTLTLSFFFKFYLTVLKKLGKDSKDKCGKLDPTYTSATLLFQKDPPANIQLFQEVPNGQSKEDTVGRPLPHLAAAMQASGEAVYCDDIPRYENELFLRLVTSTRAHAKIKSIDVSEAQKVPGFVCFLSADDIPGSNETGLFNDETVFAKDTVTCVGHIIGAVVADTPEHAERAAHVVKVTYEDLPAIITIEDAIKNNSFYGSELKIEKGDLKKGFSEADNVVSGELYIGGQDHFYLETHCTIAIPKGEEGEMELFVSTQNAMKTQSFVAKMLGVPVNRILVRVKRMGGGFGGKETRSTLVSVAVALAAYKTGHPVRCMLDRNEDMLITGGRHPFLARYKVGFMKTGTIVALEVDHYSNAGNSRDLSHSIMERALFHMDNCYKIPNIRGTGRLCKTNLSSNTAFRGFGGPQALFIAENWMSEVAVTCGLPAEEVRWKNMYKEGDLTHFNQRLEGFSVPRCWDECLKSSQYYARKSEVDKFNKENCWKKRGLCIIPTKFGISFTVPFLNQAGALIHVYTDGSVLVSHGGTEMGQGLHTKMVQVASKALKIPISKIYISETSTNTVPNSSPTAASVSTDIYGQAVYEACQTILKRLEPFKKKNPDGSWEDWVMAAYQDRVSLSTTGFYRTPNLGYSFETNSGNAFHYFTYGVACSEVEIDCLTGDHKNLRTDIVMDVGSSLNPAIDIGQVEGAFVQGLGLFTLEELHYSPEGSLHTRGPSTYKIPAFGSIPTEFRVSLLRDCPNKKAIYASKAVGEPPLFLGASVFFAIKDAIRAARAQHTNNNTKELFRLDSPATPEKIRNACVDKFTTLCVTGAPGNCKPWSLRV

IC50 [1]: 7.23 µM
SMILES: O=c1nc(-c2ccncc2)cc(-c2ccco2)[nH]1
Ratio IC50 [2]: 1.69

IC50 [3]: 1730 nM
SMILES: O=c1c(-c2ccc(O)cc2)coc2cc(O)cc(O)c12 [GENISTEIN]
Ratio IC50 [2]: 2.04

SMILES: Oc1ncnc2[nH]ncc12 [ALLOPURINOL]
IC50 [4]: 5300 nM

IC50 [1]: 10.2 µM
SMILES: Oc1nc(-c2ccccc2)cc(-c2ccccc2)n1
Ratio IC50 [2]: 1.2

IC50 [1]: 12 µM
SMILES: O=c1nc(-c2ccc(Cl)cc2)cc(-c2ccc(Cl)cc2)[nH]1
Ratio IC50 [2]: 1.02

Ratio IC50 [5]: 150
IC50 [6]: 28 nM
SMILES: COCCCCSc1nc2[nH]cnc2c(=O)[nH]1

IC50 [1]: 11.2 µM
SMILES: O=c1nc(-c2ccncc2)cc(-c2cccc3ccccc23)[nH]1
Ratio IC50 [2]: 1.09

IC50 [7]: 50 nM
Ratio IC50 [8]: 8
SMILES: O=c1oc2c(O)ccc(-c3oc4cc(O)cc(O)c4c(=O)c3O)c2s1

IC50 [9]: 71.5 µM
SMILES: O=c1cc(-c2ccccc2)oc2cc(O)c(O)c(O)c12 [BAICALEIN]
Ratio IC50 [2]: 3.61

IC50 [4]: 220 nM
Ratio IC50 [8]: 1.74
SMILES: COc1ccc(-c2cc(=O)c3c(O)cc(O)cc3o2)cc1 [ACACETIN]

IC50 [10]: 20.9 µM
SMILES: O=[N+]([O-])c1cccc(C2Nc3ccccc3-c3cc(-c4ccccc4)nn32)c1 (stereo not drawn)
Ratio IC50 [11]: 1.51

IC50 [1]: 6.45 µM
SMILES: O=c1nc(-c2ccncc2)cc(-c2cccs2)[nH]1
Ratio IC50 [2]: 1.9

Ratio IC50 [5]: 2.19
IC50 [6]: 1920 nM
SMILES: CCCCCOC(=O)C(=O)Nc1[nH]cnc1C(N)=O

Ki [12]: 5.7 nM
SMILES: N#Cc1cc(-c2n[nH]c(-c3ccncc3)n2)ccn1 [TOPIROXOSTAT]

IC50 [4]: 13.6 nM
Ratio IC50 [8]: 28.2
SMILES: O=c1cc(-c2ccc(-c3ccccc3)cc2)oc2cc(O)cc(O)c12

IC50 [13]: 600 nM
SMILES: CC(C)=CCc1cc(C(=O)/C=C/c2ccc(O)c(O)c2)c(O)cc1O [BROUSSOCHALCONE A]
Ratio IC50 [11]: 3.33

Ratio IC50 [5]: 6.36
IC50 [6]: 660 nM
SMILES: CCCCCCSc1nc2c(=O)[nH]c(O)nc2[nH]1

IC50 [14]: 16.7 µM
SMILES: C=CCc1ccc(O)c(O)c1 [HYDROXYCHAVICOL]
Ratio IC50 [11]: 1.84

IC50 [4]: 90.8 nM
Ratio IC50 [8]: 4.22
SMILES: CC(C)(C)c1ccc(-c2cc(=O)c3c(O)cc(O)cc3o2)cc1

IC50 [15]: 3570 nM
SMILES: O=c1cc(-c2ccc(O)cc2)oc2cc(O)cc(O)c12 [APIGENIN]

Ratio IC50 [5]: 1.08
IC50 [6]: 3880 nM
SMILES: CCCCSc1nc(O)c2[nH]cnc2n1

SMILES: O=c1cc(-c2ccc(O)c(O)c2)oc2cc(O)cc(O)c12 [LUTEOLIN]
Ratio IC50 [2]: 25.32
IC50 [9]: 10.2 µM

IC50 [13]: 1800 nM
SMILES: CC1(C)C=Cc2cc(C(=O)/C=C/c3ccc(O)c(O)c3)c(O)cc2O1
Ratio IC50 [11]: 1.11

IC50 [13]: 280 nM
SMILES: C=CCc1cc(O)c(O)cc1C(C=C)c1ccc(O)c(O)c1 (stereo not drawn)
Ratio IC50 [11]: 25.21

IC50 [10]: 11 µM
SMILES: Oc1c(Cl)cc(Cl)cc1C1Nc2ccccc2-c2cc(-c3ccccc3)nn21 (stereo not drawn)
Ratio IC50 [11]: 2.89

Ratio IC50 [5]: 3.78
IC50 [6]: 1110 nM
SMILES: CCCCCCOC(=O)C(=O)Nc1[nH]cnc1C(N)=O

Ki [16]: 0.1 nM
SMILES: Cc1nc(-c2ccc(OCC(C)C)c(C#N)c2)sc1C(=O)O [FEBUXOSTAT]

Ratio IC50 [5]: 6.27
IC50 [6]: 670 nM
SMILES: CCCOCCSc1nc2[nH]cnc2c(=O)[nH]1

IC50 [1]: 6.24 µM
SMILES: O=c1cc(-c2cccnc2)[nH]c2ccccc12
Ratio IC50 [2]: 1.33

IC50 [17]: 92 nM
SMILES: O=C1CC(c2ccc(O)c(-c3c(O)cc(O)c4c3OC(c3ccc(O)cc3)CC4=O)c2)Oc2cc(O)cc(O)c21 (stereo not drawn)
Ratio IC50 [11]: 1.09

Ratio IC50 [5]: 7.5
IC50 [6]: 560 nM
SMILES: CCCCCCSc1nc2c(=O)[nH]cnc2[nH]1

IC50 [15]: 1260 nM
SMILES: O=c1cc(-c2ccccc2)oc2cc(O)cc(O)c12 [CHRYSIN]
Ratio IC50 [2]: 2.33
Ratio IC50 [18]: 2.83

SMILES: O=c1c(O)c(-c2ccc(O)c(O)c2)oc2cc(O)cc(O)c12 [QUERCETIN]
IC50 [7]: 400 nM
IC50 [4]: 383 nM

IC50 [4]: 2000 to 4220 nM
Ratio IC50 [8]: 2.65
SMILES: O=C(/C=C/c1ccc2c(c1)O[C@H](c1ccc(O)c(O)c1)[C@@H](C(=O)O)O2)O/C=C\c1ccc(O)c(O)c1

Ratio IC50 [5]: 72.4
IC50 [6]: 58 nM
SMILES: CCOCCCSc1nc2[nH]cnc2c(=O)[nH]1

IC50 [4]: 347 nM
Ratio IC50 [8]: 1.1 to 1.74
SMILES: O=c1cc(-c2ccc(-c3ccccc3)cc2)oc2cc(O)ccc12

IC50 [4]: 600 to 1100 nM
Ratio IC50 [8]: 8.83
SMILES: O=C(/C=C/c1ccc2c(c1)O[C@H](C(=O)O)[C@H](c1ccc(O)c(O)c1)O2)O/C=C\c1ccc(O)c(O)c1

IC50 [4]: 5200 to 28200 nM
Ratio IC50 [8]: 1.02
SMILES: O=C(/C=C/c1ccc2c(c1)O[C@@H](c1ccc(O)c(O)c1)[C@@H](C(=O)O)O2)O/C=C\c1ccc(O)c(O)c1
